Legend:
[1] = Potency of Amphotericin after foam drying and storage; format: physicochemical
Method: Freeze-dried samples of Amphotericin B were rehydrated with 5 ml 40 wt % sucrose per vial. Then the solutions (5 ml) were transferred into 50 ml sterilized glass vials for future preservation by drying. Before drying, the vials were covered with gray butyl slotted rubber stoppers. The vials were dried inside a vacuum chamber. The vials were placed on the surface of a stainless steel shelf inside the chamber. Before the vacuum was applied the shelf temperature was decreased to 5 C. The hydrostatic pressure inside the chamber was decreased to 0.5 Torr. Under such conditions the suspension boiled for 30 min. The temperature of the shelf was then slowly (during 30 min) increased to 25 C. Visually, stable dry foams were formed inside the vials under these experimental conditions within 3 hours. After an additional 12 hours of drying at room temperature, the chamber was filled with the dry N2 gas and the rubber stoppers in a portion of the vials were pushed down. The vials were removed from the chamber and subsequently sealed with aluminum crimped seal. The samples were assayed right after drying and after 30 days of storage at 27.5 and 40 C. The results are shown in Table 1, together with the results obtained in the next experiment.
Another set of freeze-dried samples of Amphotericin B was rehydrated with 5 ml 40 wt % sucrose per vial. The solutions were then transferred into sterilized glass vials for future preservation by drying similar to that described above with additional drying at 45 C for additional 24 hours. After that, the chamber was filled again with the dry N2 gas, the rubber stoppers were pushed down and the vials were sealed. The samples were assayed right after drying and after 30 day of storage at 27.5 and 40 C.

[2] = Urokinase activity after foam drying and storage; format: biochemical
Method: Freeze-dried samples of Urokinase were rehydrated with 2 ml of 40 wt % sucrose. The solutions were then transferred to 20 ml sterilized glass vials for future preservation by drying. Before drying, the vials were covered with gray slotted rubber stoppers. The vials were dried inside a vacuum chamber. The vials were sitting on the surface of a stainless steel shelf inside the chamber. Before the vacuum was applied the shelf temperature was decreased to 5 C. Then the hydrostatic pressure inside the chamber was decreased to 0.5 Torr. Under such conditions, the suspension boiled for 30 min. […] Visually, under these experimental conditions, stable dry foams were formed inside the vials within 3 hours. After an additional 12 hours of drying at room temperature, the temperature was increased to 45 C for an additional 24 hours. After that the chamber was filled with dry N2 gas, the rubber stoppers were pushed down and the vials were sealed with aluminum crimp seals.
The samples were assayed right after drying and after 30 days of storage at 40 C. After drying the Urokinase, activity was 93% of the initial activity. This decrease was associated with the loss of Urokinase during transfer from initial vials to the vials at which the Urokinase was dried. After 30 days of storage at 40 C the activity was 90%. […]

[3] = aqueous 50% glycerol solution from Sigma Chemical Co., before dialysis; cited from earlier work
[4] = isocitrate dehydrogenase activity (NADP reduction at 340 nm) after preservation by foam drying; format: biochemical
Method: An aqueous 50% glycerol isocitrate dehydrogenase solution from Sigma Chemical Co. containing 59.4 units of activity per ml was dialyzed for 5 hours in 0.1 M TRIS HCl buffer (pH 7.4). The activity of the isocitrate dehydrogenase in the 0.1 M TRIS HCl solution after dialysis was 26±1.8 units per ml. The activity decrease was associated with a decrease in the enzyme concentration because of dilution during the dialysis.
A mixture (100 l) containing 50 l of 50% by weight sucrose solution and 50 l of the isocitrate dehydrogenase suspension in 0.1 M TRIS HCl buffer (pH 7.4) was placed in 1.5 ml plastic tubes and preserved by drying at room temperature. First, the samples were dried for 4 hours under low vacuum (0.2 atm). Second, the samples were boiled during 4 hours under high vacuum (<0.01 atm). During this step, a mechanically stable dry foam was formed in the tubes. Third, the samples were stored during 8 days over DRIERITE under vacuum at room temperature.
After 8 days, the samples were rehydrated with 500 l water. Rehydration of the samples containing dry foams was an easy process that was completed within several seconds. The reconstituted sample was assayed for activity by assaying ability to reduce NADP, measured spectrophotometrically at 340 nm. The reaction mix included: 2 ml 0.1 M TRIS HCl buffer, pH 7.4; 10 l of 0.5% by weight NADP+; 10 l of 10 mM MnSO4; 10 l of 50 mM 1-isocitrate; and 10 l of an isocitrate dehydrogenase solution.

**Q.** With C[C@@H]1[C@H](O)[C@@H](C)/C=C/C=C/C=C/C=C/C=C/C=C/C=C/[C@H](O[C@@H]2O[C@H](C)[C@@H](O)[C@H](N)[C@@H]2O)C[C@@H]2O[C@](O)(C[C@@H](O)C[C@@H](O)[C@H](O)CC[C@@H](O)C[C@@H](O)CC(=O)O[C@H]1C)C[C@H](O)[C@H]2C(=O)O [Amphotericin, Amphotericin B] as the compound, how does the “Potency of Amphotericin (%)” value ([1]; Control (printed in column After drying)) read?
**A.** The value was 126%.

**Q.** And the “Potency of Amphotericin (%) After 30 days at 27.5 C.” value ([1]; Td = 25 C)?
**A.** The value was 114%.

**Q.** And the “Potency of Amphotericin (%) After 30 days at 40 C.” value ([1]; Td = 25 C)?
**A.** Its value is 95%.

**Q.** And the “Potency of Amphotericin (%) After drying” value ([1]; Td = 25 C)?
**A.** The value was 108%.

**Q.** What about the “Potency of Amphotericin (%) After 30 days at 27.5 C.” value ([1]; Td = 45 C) of the same compound?
**A.** Its value is 102%.

**Q.** And the “Potency of Amphotericin (%) After 30 days at 40 C.” value ([1]; Td = 45 C)?
**A.** The value was 104%.

**Q.** And the “Potency of Amphotericin (%) After drying” value ([1]; Td = 45 C)?
**A.** Its value is 103%.

**Q.** Which results are given for Urokinase?
**A.** Urokinase activity, % of the initial activity ([2]; after 30 days of storage at 40 C): 90%; Urokinase activity, % of the initial activity ([2]; right after drying (40 wt % sucrose foam, up to 45 C)): 93%

**Q.** Which results are given for isocitrate dehydrogenase?
**A.** activity of isocitrate dehydrogenase solution [3]: 59.4 units of activity per ml; loss of activity during drying and subsequent storage ([4]; 8 days at room temperature): no loss of activity; activity after rehydration ([4]; dried with sucrose to foam, stored 8 days over DRIERITE under vacuum at room temperature, 100 l sample rehydrated with 500 l water): 2.6±0.2 units/ml; activity of isocitrate dehydrogenase after dialysis ([4]; in 0.1 M TRIS HCl (pH 7.4) after 5 hours dialysis): 26±1.8 units per ml
